From US6420357B1, “Cytotoxic alkaloid derivatives including Asmarine A and B isolated from a sponge” (Instituto Biomar, S.A., priority 1997, dated 2002) come the findings set out here.

One may read the IC50 as the point on the concentration scale where inhibition reaches its midpoint. A high value points to a need for much substance.

The structures appear in SMILES notation.

Common to all, as to format: cell-based
The test system of assay [1] is P-388 (suspension culture of a lymphoid neoplasm from DBA/2 mouse). Description: in vitro cytotoxic assay, P-388 cells. Particulars: P388, 72 h, three days of incubation, approximate IC50 by growth vs control wells. As to the method:
(§1) Cells were maintained in logarithmic phase of growth in Eagle's Minimum Essential Medium, with Earle's Balanced Salts, with 2.0 mM L-glutamine, with non-essential amino acids, without sodium bicarbonate (EMEM/neaa); supplemented with 10% Fetal Calf Serum (FCS), 10^−2 M sodium bicarbonate and 0,1 g/l penicillin-G+streptomycin sulfate.
(§2) A screening procedure has been carried out to determine and compare the antitumor activity of these compounds, using an adapted form of the method described by Bergeron et al. (Reference 3). The antitumor cells employed were P-388 (suspension culture of a lymphoid neoplasm from DBA/2 mouse), A-549 (monolayer culture of a human lung carcinoma), HT-29 (monolayer culture of a human colon carcinoma) and MEL-28 (monolayer culture of a human melanoma).
P-388 cells were seeded into 16 mm wells at 1×10^4 cells per well in 1 ml aliquots of MEM 5FCS containing the indicated concentration of drug. A separate set of cultures without drug was seeded as control growth to ensure that cells remained in exponential phase of growth. All determinations were carried out in duplicate. After three days of incubation at 37° C., 10% CO2 in a 98% humid atmosphere, an approximately IC50 was determined by comparing the growth in wells with drug to the growth in wells control.

Assay [2] relates to HT-29 (monolayer culture of a human colon carcinoma). In words: in vitro cytotoxic assay, HT-29 cells. Particulars: 72 h, three days of incubation, Crystal Violet staining, approximate IC50. As to the method:
as §1, §2
(§3) A-549, HT-29 and MEL-28 cells were seeded into 16 mm wells at 2×10^4 cells per well in 1 ml aliquots of MEM 10FCS containing the indicated concentration of drug. A separate set of cultures without drug was seeded as control growth to ensure that cells remained in exponential phase of growth. All determinations were carried out in duplicate. After three days of incubation at 37° C., 10% CO2 in a 98% humid atmosphere, the wells were stained with 0.1% Crystal Violet. An approximately IC50 was determined by comparing the growth in wells with drug to the growth in wells control.

For assay [3], the system named is A-549 (monolayer culture of a human lung carcinoma). Description: in vitro cytotoxic assay, A-549 cells. The following applies: A549, 72 h, three days of incubation, Crystal Violet staining, approximate IC50. As to the method: as §1, §2, §3
For assay [4], the system named is MEL-28 (monolayer culture of a human melanoma). In words: in vitro cytotoxic assay, MEL-28 cells. Particulars: SK-MEL-28, 72 h, three days of incubation, Crystal Violet staining, approximate IC50. As to the method:
as §1, §2, §3

With `C=C1CCC[C@@H]2[C@@](C)(CC[C@@]3(C)CCn4cnc5ncnc(c54)N3O)[C@H](C)CC[C@@]12C` [Asmarine A], the 50% inhibitory concentration (IC50) in assay [1], in assay [2], in assay [3] and in assay [4] was 1180 nM throughout.
With `C=C1CCC[C@H]2[C@@](C)(CC[C@@]3(C)CCn4cnc5ncnc(c54)N3O)[C@H](C)CC[C@@]12C` [Asmarine B], the IC50 worked out at 240 nM in assay [1], 120 nM in assay [2], 120 nM in assay [3] and 240 nM in assay [4].
